Values of other authors, collected in publication PMC11291853, “Haemodynamic, hormonal and renal actions of osteocrin in normal sheep” (Experimental Physiology, 2024).

What was measured:
people = tested on: people; design: method as in Hirata et al., 1990; settings: exogenous ANP infusions achieving plasma concentrations of ∼150 pmol/L, ref Hirata et al., 1990; cited from earlier work
[1] = sheep; at comparable circulating concentrations (∼30 pmol/L); ref Charles, Espiner, Richards et al., 1996; cited from earlier work
Text: To our knowledge, the metabolism of the 5 kDa OSTN has not been studied previously in vivo. […] Consistent with this is the longer half‐l ...

NPR-C = settings: purified ovine lung tissue membranes; ref Smith et al., 2000; read-out: K d, binding affinity to NPR-C; cited from earlier work
Method: Actions of OSTN on muscle cells (Subbotina et al., [2015]) and cartilage/bone (Moffatt et al., [2007]; Thomas et al., [2003]) have been studied, whereas few reports have examined the impact of the peptide on plasma concentrations of NPs and on cardiovascular and renal tissues. A crucial issue is the ability of OSTN, in tissues and in plasma, to impact NP concentrations in health or disease. In mice, constant infusion of the 10 kDa peptide [proOSTN (30–130)] at doses of 10 μg/kg/min (∼1000 pmol/kg/min) increased endogenous plasma ANP (by ∼15 pmol/L), similar to increments evoked by administrati ...

ANP: atrial natriuretic peptide
Increase in nephrogenous cGMP (people): 10 fold | Clearance rate (MCR) [1]: 5.7 L/min | Kd (NPR-C): 0.008 to 0.016 nM
